1 compound from ChEMBL document CHEMBL1157351, “Total synthesis and evaluation of C25-benzyloxyepothilone C for tubulin assembly and cytotoxicity against MCF-7 breast cancer cells” (Bioorg Med Chem Lett, 2008) can be followed below.

In experiment [1] the test system is MCF7. Nature of the experiment: Cytotoxicity against human MCF7 cells. It is filed as functional.
Experiment [2] is described as follows: Inhibition of microtubule assembly at 100 uM.
Experiment [3] has as its system MCF7. The experiment can be described thus: Ratio of ED50 for drug to ED50 for epothilone B against human MCF7 cells. It is filed as functional.
Experiment [4] in a line: Inhibition of microtubule assembly.

The source made the active and inactive calls. The calls are words filed in the database; no cut-off is given here.

Broadly, the EC50 is the concentration at which the effect is half-maximal. Lower therefore signals an effect from little substance. `C/C(=C\c1csc(C)n1)[C@@H]1C/C=C\CCC[C@H](COCc2ccccc2)C(O)[C@@H](C)C(=O)C(C)(C)C(O)CC(=O)O1` (some centres undefined): in the experiment on MCF7 [1], the Activity was found to be 2.1 µM. In experiment [2], the result was inactive. For the same compound, the “Ratio ED50” value with MCF7 [3] was determined as 1050. For the same compound, the EC50 in experiment [4] was 2500 nM.
